Key:
recombinant human KDM4A = target: T1, recombinant human KDM4A (Homo sapiens, UniProt O75164); assay: 14CO2 capture enzymatic assay (decarboxylation of [1-14C] αKG), KDM4A; format: biochemical; details: 10 μM [1-14C] αKG, 90 μM non-labeled αKG, 50 μM peptide substrate, 37° C., 1 hour, final 1% DMSO
T1 construct: made in house
T1 sequence (O75164 1-359 limits assumed): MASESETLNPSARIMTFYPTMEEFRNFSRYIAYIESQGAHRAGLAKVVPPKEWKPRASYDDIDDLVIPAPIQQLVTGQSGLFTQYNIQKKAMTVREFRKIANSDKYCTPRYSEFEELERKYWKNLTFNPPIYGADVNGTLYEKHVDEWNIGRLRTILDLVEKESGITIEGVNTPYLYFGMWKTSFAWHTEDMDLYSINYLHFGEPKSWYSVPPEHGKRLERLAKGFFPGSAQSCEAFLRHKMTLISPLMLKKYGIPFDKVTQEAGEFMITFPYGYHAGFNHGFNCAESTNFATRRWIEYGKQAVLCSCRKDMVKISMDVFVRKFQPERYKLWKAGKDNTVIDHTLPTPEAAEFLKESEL
Protocol: (§1) Enzymatic activity was determined based on the capture of ^14CO2 released by the decarboxylation of [1-^14C] αKG (Zhang et al., Anal. Biochem., 1998, vol. 271, pp. 137-142). [1-^14C]alphaketoglutarate (αKG) was from Perkin-Elmer, H3K4me3 and H3K9me3 peptides were from Mimotopes. All other reagents were from Sigma. Reaction mixtures included the following components: Fe(SO4), [1-^14C] αKG, non-labeled αKG, ascorbate, peptide-substrate (H3K4me3: H-ARTK(me3)QTARKSTGGKAPRKQLA-OH. H3K9me3: H-ARTKQTARK(me3)STGGKAPRKQLA-OH), NaCl, Tween-20 and catalase in 25 mM HEPES buffer, pH 7.4. The enzymatic reactions were initiated by addition of recombinant human KDM5B or KDM4A enzyme (truncated enzyme produced in house by method and using sequence disclosed in Ng et al, Nature 448:87-91, 2007). The reactions were performed in 96-well microtiter plates (20 μL total assay volume) (Greiner #650201). ^14CO2 was captured on a glass fiber filter paper (Cat. No. IH-201-A, Inotech Biosystems International) soaked with saturated Ba(OH)2 that was laid on top of the 96-well plate. A microtiter plate sealer film (Thermal Seal cat #T7961100) was applied to the filter paper. The plate and filter paper were sandwiched between two custom made aluminum plates (Advanced Component Manufacturing, Burlingame, CA) and transferred to a 37° C. oven and allowed to incubate for 1 hour. After incubation, the filter paper was dried in a 103° C. oven for 40-60 minutes. To determine percent turnover, aliquots of the reaction mixture were spotted onto the filter paper and the filter paper was dried again. The dry filter paper was exposed to a storage phosphor screen for 24-72 hours and the images recorded using a Typhoon FLA 7000 Imager (Amersham Biosciences, Piscataway, NJ). Integrated spot intensities corresponding to control reactions lacking the enzyme were subtracted from integration results for enzyme containing reactions and data were converted to enzyme dependent percent ^14CO2 release. All enzymatic reactions were run in duplicates.
(§2) For IC50 determination, a 3-fold dilution series of compound was prepared and added to the reaction mixture (final 1% DMSO, v/v) prior to enzyme addition. The final reagent concentrations were: 10 μM Fe(SO4), 10 μM [1-^14C] αKG, 90 μM non-labeled αKG, 2 mM ascorbate, 50 μM peptide substrate, 75 mM NaCl, 0.01% Tween-20 and ˜2 units/μL catalase. IC50s were determined by non-linear fitting using Grafit version 7.0.

recombinant human KDM5B = target: T2, recombinant human KDM5B (Homo sapiens, UniProt Q9UGL1); assay: 14CO2 capture enzymatic assay (decarboxylation of [1-14C] αKG), KDM5B; format: biochemical; details: 10 μM [1-14C] αKG, 90 μM non-labeled αKG, 50 μM peptide substrate, 37° C., 1 hour, final 1% DMSO
T2 sequence (Q9UGL1 374-755 limits assumed): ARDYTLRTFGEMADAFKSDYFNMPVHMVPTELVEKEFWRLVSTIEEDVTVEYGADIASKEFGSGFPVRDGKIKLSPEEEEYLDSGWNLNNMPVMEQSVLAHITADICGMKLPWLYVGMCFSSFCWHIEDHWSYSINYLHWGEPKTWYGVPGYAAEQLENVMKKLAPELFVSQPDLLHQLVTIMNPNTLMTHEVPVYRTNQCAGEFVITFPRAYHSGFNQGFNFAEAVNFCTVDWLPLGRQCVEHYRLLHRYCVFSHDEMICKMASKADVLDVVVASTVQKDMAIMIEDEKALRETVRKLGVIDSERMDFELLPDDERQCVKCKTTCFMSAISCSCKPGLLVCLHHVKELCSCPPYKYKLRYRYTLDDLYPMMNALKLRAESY
Protocol: as §1, §2

SMILES	IC50 (recombinant human KDM4A)	IC50 (recombinant human KDM5B)
Cc1cccc(F)c1-c1cc(C#N)c(O)c(C(=O)CCC(=O)O)n1 [Example 88, 4-[4-Cyano-6-(2-fluoro-6-methyl-phenyl)-3-hydroxy-pyridin-2-yl]-4-oxo-butyric acid]	> 40000 nM	710 nM
Cc1cc(F)ccc1-c1cc(C#N)c(O)c(C(=O)CCC(=O)O)n1 [Example 86, 4-[4-Cyano-6-(4-fluoro-2-methyl-phenyl)-3-hydroxy-pyridin-2-yl]-4-oxo-butyric acid]	> 40000 nM	450 nM
Cc1ccc(-c2cc(C#N)c(O)c(C(=O)CCC(=O)O)n2)c2ccccc12 [Example 113, 4-[4-Cyano-3-hydroxy-6-(4-methyl-naphthalen-1-yl)-pyridin-2-yl]-4-oxo-butyric acid]	> 40000 nM	230 nM
N#Cc1cc(-c2cccc3cccnc23)nc(C(=O)CCC(=O)O)c1O [Example 116, 4-(4-Cyano-3-hydroxy-6-quinolin-8-yl-pyridin-2-yl)-4-oxo-butyric acid]	> 40000 nM	100 nM
N#Cc1cc(Cc2c(Cl)cc(F)cc2Cl)nc(C(=O)CCC(=O)O)c1O [Example 126, 4-[4-Cyano-6-(2,6-dichloro-4-fluoro-benzyl)-3-hydroxy-pyridin-2-yl]-4-oxo-butyric acid]	2900 nM	70 nM
N#Cc1cc(-c2cccc(C(F)(F)F)c2Cl)nc(C(=O)CCC(=O)O)c1O [Example 103, 4-[6-(2-Chloro-3-trifluoromethyl-phenyl)-4-cyano-3-hydroxy-pyridin-2-yl]-4-oxo-butyric acid]	> 40000 nM	380 nM
N#Cc1cc(Oc2ccc(F)cc2)cc(C(=O)CCC(=O)O)c1O [Example 142, 4-[3-Cyano-5-(4-fluoro-phenoxy)-2-hydroxy-phenyl]-4-oxo-butyric acid]	> 40000 nM	280 nM
N#Cc1cc(Br)c(O)c(C(=O)CCC(=O)O)n1 [Example 2, 4-(4-Bromo-6-cyano-3-hydroxy-pyridin-2-yl)-4-oxo-butyric acid]	19000 nM	310 nM
Cc1cc(Cl)ccc1-c1cc(C#N)c(O)c(C(=O)CCC(=O)O)n1 [Example 90, 4-[6-(4-Chloro-2-methyl-phenyl)-4-cyano-3-hydroxy-pyridin-2-yl]-4-oxo-butyric acid]	> 40000 nM	250 nM
COc1cccc(Cl)c1Cc1cc(C#N)c(O)c(C(=O)CCC(=O)O)n1 [Example 125, 4-[6-(2-Chloro-6-methoxy-benzyl)-4-cyano-3-hydroxy-pyridin-2-yl]-4-oxo-butyric acid]	13000 nM	80 nM
N#Cc1cc(Oc2cccc(Cl)c2)cc(C(=O)CCC(=O)O)c1O [Example 138, 4-[5-(3-Chloro-phenoxy)-3-cyano-2-hydroxy-phenyl]-4-oxo-butyric acid]	> 40000 nM	390 nM
N#Cc1cc(Cc2c(Cl)cccc2C#N)nc(C(=O)CCC(=O)O)c1O [Example 58, 4-[6-(2-Chloro-6-cyano-benzyl)-4-cyano-3-hydroxy-pyridin-2-yl]-4-oxo-butyric acid]	16000 nM	180 nM
N#Cc1cc(Cc2cccc(-c3ccccc3)c2)nc(C(=O)CCC(=O)O)c1O [Example 51, 4-(6-Biphenyl-3-ylmethyl-4-cyano-3-hydroxy-pyridin-2-yl)-4-oxo-butyric acid]	> 40000 nM	200 nM
Cc1ccccc1Oc1cc(C#N)c(O)c(C(=O)CCC(=O)O)c1 [Example 140, 4-(3-Cyano-2-hydroxy-5-o-tolyloxy-phenyl)-4-oxo-butyric acid]	> 40000 nM	330 nM
N#Cc1cc(Cc2cccc(C(F)(F)F)c2)nc(C(=O)CCC(=O)O)c1O [Example 29, 4-[4-Cyano-3-hydroxy-6-(3-trifluoromethyl-benzyl)-pyridin-2-yl]-4-oxo-butyric acid]	> 40000 nM	460 nM
Cc1cc(C#N)cc(C)c1Cc1cc(C#N)c(O)c(C(=O)CCC(=O)O)n1 [Example 153, 4-[4-Cyano-6-(4-cyano-2,6-dimethyl-benzyl)-3-hydroxy-pyridin-2-yl]-4-oxo-butyric acid]	17000 nM	320 nM
Cc1ccc(Cc2cc(C#N)c(O)c(C(=O)CCC(=O)O)n2)cc1 [Example 38, 4-[4-Cyano-3-hydroxy-6-(4-methyl-benzyl)-pyridin-2-yl]-4-oxo-butyric acid]	> 40000 nM	120 nM
N#Cc1cc(C(F)(F)F)nc(C(=O)CCC(=O)O)c1O [Example 35, 4-(4-Cyano-3-hydroxy-6-trifluoromethyl-pyridin-2-yl)-4-oxo-butyric acid]	12000 nM	50 nM
N#Cc1cc(Cc2ccccc2-c2ccccc2)nc(C(=O)CCC(=O)O)c1O [Example 52, 4-(6-Biphenyl-2-ylmethyl-4-cyano-3-hydroxy-pyridin-2-yl)-4-oxo-butyric acid]	> 40000 nM	300 nM
COc1ccc(Cc2cc(C#N)c(O)c(C(=O)CCC(=O)O)n2)cc1 [Example 27, 4-[4-Cyano-3-hydroxy-6-(4-methoxy-benzyl)-pyridin-2-yl]-4-oxo-butyric acid]	> 40000 nM	550 nM
N#Cc1cc(Cc2cccc(Cl)c2)nc(C(=O)CCC(=O)O)c1O [Example 18, 4-[6-(3-Chloro-benzyl)-4-cyano-3-hydroxy-pyridin-2-yl]-4-oxo-butyric acid]	> 40000 nM	100 nM
N#Cc1cc(Cc2c(Cl)ccc(F)c2Cl)cc(C(=O)CCC(=O)O)c1O [Example 134, 4-[3-Cyano-5-(2,6-dichloro-3-fluoro-benzyl)-2-hydroxy-phenyl]-4-oxo-butyric acid]	> 40000 nM	120 nM
N#Cc1cc(Sc2ccccc2)nc(C(=O)CCC(=O)O)c1O [Example 78, 4-(4-Cyano-3-hydroxy-6-phenylsulfanyl-pyridin-2-yl)-4-oxo-butyric acid]	> 40000 nM	90 nM
N#Cc1cc(CC2CCCCC2)nc(C(=O)CCC(=O)O)c1O [Example 33, 4-(4-Cyano-6-cyclohexylmethyl-3-hydroxy-pyridin-2-yl)-4-oxo-butyric acid]	> 40000 nM	420 nM
N#Cc1cc(-c2cccc(Cl)c2)cc(C(=O)CCC(=O)O)c1O [Example 120, 4-(3′-Chloro-5-cyano-4-hydroxy-biphenyl-3-yl)-4-oxo-butyric acid]	> 40000 nM	150 nM
N#Cc1cc(Cc2c(Cl)cccc2C(F)(F)F)nc(C(=O)CCC(=O)O)c1O [Example 59, 4-[6-(2-Chloro-6-trifluoromethyl-benzyl)-4-cyano-3-hydroxy-pyridin-2-yl]-4-oxo-butyric acid]	> 40000 nM	330 nM
COc1cccc(F)c1Cc1cc(C#N)c(O)c(C(=O)CCC(=O)O)n1 [Example 150, 4-[4-Cyano-6-(2-fluoro-6-methoxy-benzyl)-3-hydroxy-pyridin-2-yl]-4-oxo-butyric acid]	27000 nM	280 nM
N#Cc1cc(NC(=O)c2ccccc2)nc(C(=O)CCC(=O)O)c1O [Example 158, 4-(6-Benzoylamino-4-cyano-3-hydroxy-pyridin-2-yl)-4-oxo-butyric acid]	> 40000 nM	80 nM
